Test results as given in paper PMC8150775, “Repositioning Azelnidipine as a Dual Inhibitor Targeting CD47/SIRPα and TIGIT/PVR Pathways for Cancer Immuno-Therapy” (Biomolecules, 2021).

Columns and labels:
TIGIT/PVR interaction = target: T1, TIGIT/PVR interaction (Homo sapiens, UniProt P15151); test: Blocking assay by flow cytometry, preliminary screening at a single concentration, TIGIT/PVR; format: binding; conditions: preliminary test, single concentration of 100 μM
T1 construct: purchased ACRO Biosystem CD5-H82F6; host or cells: CHOK1-TIGIT cells (lenti-viral transfection)
T1 sequence (P15151 21-343 limits assumed): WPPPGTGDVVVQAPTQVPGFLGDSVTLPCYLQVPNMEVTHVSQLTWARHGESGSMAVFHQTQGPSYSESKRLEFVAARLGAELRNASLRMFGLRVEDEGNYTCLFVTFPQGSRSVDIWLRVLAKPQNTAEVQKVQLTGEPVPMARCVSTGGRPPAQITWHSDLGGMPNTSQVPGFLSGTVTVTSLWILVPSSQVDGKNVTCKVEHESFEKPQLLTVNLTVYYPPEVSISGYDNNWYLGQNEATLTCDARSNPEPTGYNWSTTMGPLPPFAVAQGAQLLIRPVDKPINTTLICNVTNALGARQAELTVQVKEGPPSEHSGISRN
Description: (§1) The abilities of small molecule inhibitors (SMIs) (purchased from TargetMol, Shanghai, China) to block the binding of SIRPα protein to CHOK1-CD47 cells or PVR protein to CHOK1-TIGIT cells were determined by flow cytometry, as previously reported. The SMIs at indicated concentrations were incubated with Fc-tagged SIRPα or PVR protein for 30 min at 4°C, followed by incubating with the indicated cells for another 30 min. Human SIRPα protein (SIA-H5251, ACRO Biosystem, Beijing, China), mouse SIRPα protein (SIA-M5258, ACRO Biosystem, Beijing, China), human PVR protein (CD5-H82F6, ACRO Biosystem, Beijing, China), and mouse PVR protein (50259-M03H, Sino Biological, Beijing, China) were used. PE-conjugated anti-human IgG antibody was used to detect the Fc protein bind to cells. Cells incubated with the Fc proteins and anti-human IgG antibody without the SMIs serve as the positive control. The mean fluorescent intensity (MFI) of each sample was detected and recorded by a flow cytometry. The blocking efficacy of the SMIs was calculated as the equation: (MFI of the positive control-MFI of the SMI)/MFI of the positive control × 100%.
(§2) The small molecule inhibitor could not only bind to the target; most importantly, it should interfere with the receptor–ligand interactions. Subsequently, the candidate inhibitors were screened by the blocking assays with the established CD47 and TIGIT over-expressing cell lines. The test was initialed with a preliminary screening of the candidates with a single concentration (Figure 2D). Generally, the SMI blocking efficacy to the CD47/SIRPα interaction was much higher than that of the TIGIT/PVR. […] Therefore, the SMI-F11 and SMI-F17 may exert dual blocking effects in the CD47/SIRPα and TIGIT/PVR pathways. Blocking assays with a concentration gradient of the SMI were further performed to validate the preliminary screening. […] The similar blocking assays with the mouse CD47 and TIGIT over-expressing cells were also performed. […] Considering that most pairs of the immune checkpoints interact with the corresponding ligand in parallel forms, the blocking assays with the PD-1/PD-L1 interaction system was also conducted to test the specificity.

CD47/SIRPα interaction = target: T2, CD47/SIRPα interaction (Homo sapiens, UniProt P78324); test: Blocking assay by flow cytometry, preliminary screening at a single concentration, CD47/SIRPα; format: binding; conditions: preliminary test, single concentration of 100 μM
T2 construct: purchased ACRO Biosystem SIA-H5251; host or cells: CHOK1-CD47 cells (lenti-viral transfection)
Description: as §1, §2

human TIGIT/PVR = target: T3, human TIGIT/PVR (Homo sapiens, UniProt P15151); test: Blocking assay, human PVR protein binding to CHOK1-hTIGIT cells; conditions: concentration gradient
T3 construct: purchased ACRO Biosystem CD5-H82F6; host or cells: soluble protein purchased; TIGIT on CHOK1-hTIGIT cells (lenti-viral transfection)
Description: as §1

human CD47/SIRPα = target: T4, human CD47/SIRPα (Homo sapiens, UniProt P78324); test: Blocking assay, human SIRPα protein binding to CHOK1-hCD47 cells; conditions: concentration gradient
T4 construct: purchased ACRO Biosystem SIA-H5251; host or cells: soluble protein purchased; CD47 on CHOK1-hCD47 cells (lenti-viral transfection)
Description: as §1

T2 sequence (P78324 31-370 limits assumed): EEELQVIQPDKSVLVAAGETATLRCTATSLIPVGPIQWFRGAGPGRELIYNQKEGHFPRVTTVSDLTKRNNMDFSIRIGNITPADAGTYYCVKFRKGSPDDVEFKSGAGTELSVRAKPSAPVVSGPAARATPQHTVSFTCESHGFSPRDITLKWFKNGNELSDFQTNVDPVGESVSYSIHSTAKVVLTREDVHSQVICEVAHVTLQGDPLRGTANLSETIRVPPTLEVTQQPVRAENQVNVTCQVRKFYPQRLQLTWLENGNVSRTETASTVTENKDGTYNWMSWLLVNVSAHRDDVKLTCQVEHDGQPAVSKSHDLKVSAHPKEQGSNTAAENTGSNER
T4 sequence (P78324 31-370 limits assumed): as above

CCCSc1ccc2nc(NC(=O)OC)[nH]c2c1 [SMI-F16, Albendazole]
activity in interfering with the TIGIT/PVR interaction (TIGIT/PVR interaction): better activities

Cc1cc(O)c(C(=O)N[C@@H](C(=O)N[C@@H]2C(=O)N3C(C(=O)O)=C(CSc4nnnn4C)CS[C@H]23)c2ccc(O)cc2)cn1 [SMI-F12, Cefpiramide acid]
blocking efficacy, CD47/SIRPα interaction (CD47/SIRPα interaction): more than 50%

Nc1cccc2c1CN(C1CCC(=O)NC1=O)C2=O (centres unmarked) [SMI-F19, Lenalidomide]
blocking efficacy, CD47/SIRPα interaction (CD47/SIRPα interaction): more than 50%

COc1cccc(N(C)C(=S)Oc2ccc3c(c2)CCCC3)n1 [SMI-F20, Liranaftate]
activity in interfering with the TIGIT/PVR interaction (TIGIT/PVR interaction): better activities

O=C1[C@H](CC[C@H](O)c2ccc(F)cc2)[C@@H](c2ccc(O)cc2)N1c1ccc(F)cc1 [SMI-F17, Ezetimibe]
concentration-dependent blocking effect, TIGIT/PVR (human TIGIT/PVR): could not exert blocking effects in a concentration-dependent manner
concentration-dependent blocking effect, CD47/SIRPα (human CD47/SIRPα): could not exert blocking effects in a concentration-dependent manner
activity in interfering with the TIGIT/PVR interaction (TIGIT/PVR interaction): better activities
blocking efficacy, CD47/SIRPα interaction (CD47/SIRPα interaction): more than 50%
